The structures appear in SMILES notation.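 Protocol summary: plate cells (96-well), add compound at 5 concentrations, incubate 48 h, interpolate endpoints linearly. The concentration for 50% growth inhibition is given as GI50.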 Activity calls are given as the source filed them. Rule as the data show it: active = GI50 up to about 1.1 µM and inactive = higher.

Among the test systems are DU-145; Malme-3M; HT-29; SF-268; MDA-MB-435; BT-549; T47D; HCT-116; RPMI-8226; HL-60; SF-539; SK-MEL-28; COLO 205; HOP-62; K562; SK-OV-3; 786-0; NCI-H460; M14.
Holding throughout (experiment): growth of human tumour cells (NCI), 48 h

In the case of `c1ccc(C2C(=P(c3ccccc3)(c3ccccc3)c3ccccc3)P=PC2[P+](c2ccccc2)(c2ccccc2)c2ccccc2)cc1.c1ccc([B-](c2ccccc2)(c2ccccc2)c2ccccc2)cc1` (stereo not drawn), the GI50 in the assay on DU-145 is 0.5 µM (active); with Malme-3M, 1.78 µM (inactive); in the assay with HT-29 it was 0.354 µM (active); with SF-268, 0.695 µM (active); in the assay on MDA-MB-435 it was 0.171 µM (active); with BT-549 it was 0.721 µM (active). Besides, the GI50 was 0.191 µM (active) in the assay with T47D; 0.0841 µM (active) with HCT-116; 0.278 µM (active) in the assay with RPMI-8226; 0.107 µM (active) with HL-60; 0.656 µM (active) in the assay on SF-539; 1.85 µM (inactive) in the assay with SK-MEL-28. The GI50 with COLO 205 is 0.202 µM (active); with HOP-62, 0.841 µM (active); in the assay on K562, 0.173 µM (active); in the assay with SK-OV-3, 1.85 µM (inactive); in the assay with 786-0, 0.289 µM (active); in the assay with NCI-H460 it was 0.447 µM (active). Also, in the assay with M14, the GI50 was 0.286 µM (active).
Regarding `NS(=O)(=O)c1ccc(NC(NC(=O)C(C(F)(F)F)C(F)(F)F)(C(F)(F)F)C(F)(F)F)cc1`, the GI50 with DU-145, in the assay with Malme-3M, in the assay on HT-29, with SF-268, in the assay on MDA-MB-435 and with BT-549 was > 100 µM (inactive) each time. In addition, the GI50 in the assay with T47D, with HCT-116, in the assay with RPMI-8226, in the assay with HL-60, in the assay with SF-539 and with SK-MEL-28 was > 100 µM (inactive) in each case. For the same compound, the GI50 in the assay on COLO 205, in the assay with HOP-62, in the assay on K562, with SK-OV-3, in the assay on 786-0 and in the assay with NCI-H460 was > 100 µM (inactive) throughout. In addition, the GI50 with M14 was > 100 µM (inactive).
For the compound `CS(=O)(=O)c1ccc(/N=C/C=C/Nc2ccc(S(C)(=O)=O)cc2)cc1`, the GI50 in the assay on DU-145, in the assay on Malme-3M, in the assay with HT-29, with SF-268, with MDA-MB-435 and in the assay with BT-549 was > 100 µM (inactive) throughout. The GI50 in the assay on T47D, with HCT-116, in the assay on RPMI-8226, in the assay with HL-60, in the assay with SF-539 and with SK-MEL-28 was > 100 µM (inactive) in each case. Moreover, the GI50 with COLO 205, in the assay on HOP-62, with K562, in the assay with SK-OV-3, in the assay with 786-0 and in the assay on NCI-H460 was > 100 µM (inactive) throughout. Moreover, the GI50 with M14 was > 100 µM (inactive).
For the compound `CCOC(=O)C1(C/C=C/CBr)Cc2ccccc2C1=O` (stereo not drawn), the GI50 with DU-145 is 3.38 µM (inactive); in the assay with Malme-3M it was 2.76 µM (inactive); in the assay with HT-29 it was 2.79 µM (inactive); with SF-268 it was 2.91 µM (inactive); in the assay on MDA-MB-435, 1.72 µM (inactive); in the assay with BT-549, 2.95 µM (inactive). For the same compound, the GI50 in the assay with T47D was 1.98 µM (inactive); with HCT-116, 3.71 µM (inactive); in the assay with RPMI-8226, 2.02 µM (inactive); in the assay on HL-60, 3.21 µM (inactive); in the assay with SF-539, 1.81 µM (inactive); with SK-MEL-28, 6.93 µM (inactive). Moreover, the GI50 was 3.21 µM (inactive) in the assay on COLO 205; 4.03 µM (inactive) with HOP-62; 1.87 µM (inactive) in the assay on K562; 8.69 µM (inactive) with SK-OV-3; 3.85 µM (inactive) with 786-0; 1.75 µM (inactive) in the assay with NCI-H460. In the assay on M14, the GI50 was 2.83 µM (inactive).
For `CCOC(=O)C1(Cc2ccccc2)Cc2cc3c(cc2C1=O)CCC3` (stereo not drawn), the GI50 with DU-145, in the assay with Malme-3M, in the assay on HT-29, with SF-268, in the assay with MDA-MB-435 and in the assay with BT-549 was > 100 µM (inactive) throughout. In addition, the GI50 in the assay with T47D, in the assay on HCT-116, with RPMI-8226, in the assay with HL-60, in the assay on SF-539 and in the assay on SK-MEL-28 was > 100 µM (inactive) each time. For the same compound, the GI50 with COLO 205, in the assay with HOP-62, in the assay with K562, in the assay on SK-OV-3, in the assay with 786-0 and in the assay with NCI-H460 was > 100 µM (inactive) each time. For the same compound, the GI50 in the assay on M14 is 92 µM (inactive).
As for `CC(=O)Oc1c2oc3ccc(Cl)cc3c(=O)c2c(O)c2ccsc12`, the GI50 is > 100 µM (inactive) with DU-145; > 100 µM (inactive) with Malme-3M; > 100 µM (inactive) in the assay with HT-29; > 100 µM (inactive) in the assay on SF-268; > 100 µM (inactive) in the assay on MDA-MB-435; 51.4 µM (inactive) in the assay on BT-549. Moreover, the GI50 in the assay with T47D is 0.132 µM (active); in the assay on HCT-116 it was > 100 µM (inactive); in the assay with RPMI-8226 it was > 100 µM (inactive); with HL-60, > 100 µM (inactive); in the assay with SF-539, > 100 µM (inactive); with SK-MEL-28 it was > 100 µM (inactive). The GI50 in the assay on COLO 205 was > 100 µM (inactive); in the assay with HOP-62, > 100 µM (inactive); in the assay with K562, 60.7 µM (inactive); in the assay with SK-OV-3, > 100 µM (inactive); in the assay with 786-0 it was > 100 µM (inactive); in the assay with NCI-H460, > 100 µM (inactive). For the same compound, the GI50 with M14 is > 100 µM (inactive).
As to `C/C=C/[C@@H](C(=O)OC)N1C(=O)c2ccccc2[C@H]1O`, the GI50 in the assay on DU-145, with Malme-3M, in the assay with HT-29, with SF-268, with MDA-MB-435 and with BT-549 was > 100 µM (inactive) in each case. Further, the GI50 in the assay on T47D, in the assay on HCT-116, with RPMI-8226, with HL-60, with SF-539 and in the assay on SK-MEL-28 was > 100 µM (inactive) each time. The GI50 in the assay on COLO 205, in the assay with HOP-62, in the assay on K562, with SK-OV-3, in the assay with 786-0 and in the assay with NCI-H460 was > 100 µM (inactive) each time. Further, the GI50 in the assay on M14 is > 100 µM (inactive).

Values taken from ChEMBL document CHEMBL1201862, “PubChem BioAssay data set” (2004).
